According to patent US20250129102A1, “CRYSTAL FORM OF PYRIMIDINE HETEROCYCLIC COMPOUND AND PREPARATION METHOD THEREFOR” (D3 Bio (Wuxi) Co., Ltd., priority 2021, published 2025):

Legend:
[1] = Metabolic stability in hepatocytes, beagle dogs; assay type: in vitro ADME; conditions: dog, cryopreserved hepatocytes
Protocol: (§1) Metabolic stabilities of assay compound in hepatocytes of CD-1 mice, SD rats, beagle dogs, cynomolgus monkeys, and human were assayed, respectively.
(§2) Several 96-well sample precipitation plates were prepared and named T0, T15, T30, T60, T90, T120, T0-MC, T120-MC and blank substrates, respectively. The recovery medium and incubation medium were taken out in advance and placed in a 37° C. water bath for pre-heating. Cryopreserved hepatocytes were removed from the liquid nitrogen tank and immediately immersed in a 37° C. water bath (approximately 90 seconds). After the cryopreserved hepatocytes had thawed and loosened, they were poured into a centrifuge tube containing 40 mL of recovery medium, and the tube was gently inverted to allow the cells to be resuspended in the recovery medium. The cells were centrifuged at 100×g at room temperature for 5 min, and the supernatant was removed. The hepatocytes were resuspended in an appropriate volume of incubation medium, and the cell viability was calculated by Trypan Blue staining method. 198 μL of hepatocyte suspension (0.51×10^6 cells/mL) was added to the preheated incubation plate. For the culture medium control group, 198 μL of hepatocyte-free incubation medium was added to T0-MC and T120-MC incubation plate. All incubation plates were pre-incubated in a 37° C. incubator for 10 minutes. Then 2 μL of working solutions of the assay sample and the control compound were added, respectively, and the mixture was mixed well. The incubation plate was immediately put into the shaker in the incubator, and the reaction was initiated while starting the timer. For each time point of each compound, 2 duplicate samples were prepared. The incubation conditions were 37° C., saturated humidity, and 5% CO2. […] All samples were mixed well and analyzed by LC/MS/MS.

[2] = Metabolic stability in hepatocytes, human; assay type: in vitro ADME; conditions: cryopreserved hepatocytes
Protocol: as §1, §2

[3] = Stability in plasma, CD-1 mice; assay type: in vitro ADME; conditions: CD-1 mice plasma, 2 μM, 37° C.
Protocol: Stabilities of the assay compound in plasma of CD-1 mice and human were assayed, respectively. Cryopreserved plasma was thawed for 10 to 20 min. After the plasma was completely thawed, it was placed in a centrifuge and centrifuged at 3220×g for 5 min to remove any suspended matter and sediment in the plasma. 96-well incubation plates were prepared and named T0, T10, T30, T60, T120, respectively. 98 μL of blank plasmas of mouse, rat, canine, monkey and human were added to the corresponding incubation plates, then 2 μL of working solutions of the compound or the control compound were added to the corresponding plates in duplicate. All samples were incubated in a 37° C. water bath. The final incubation concentrations of the compound and the control compounds bisacodyl, enalapril maleate, procaine and probanthine were 2 μM, and the final organic phase content was 2.0%. At the end of incubation for each time point, the corresponding incubation plate was removed and 400 μL of a solution of 200 ng/mL of tolbutamide and labetalol in acetonitrile was added to each corresponding sample well to precipitate the protein. All sample plates were sealed and shaken well, and then centrifuged at 3220×g for 20 minutes. 50 μL of supernatant was taken out and diluted in 100 μL of ultrapure water. All samples were mixed well and then analyzed by LC/MS/MS.

[4] = Protein binding rate in plasma by equilibrium dialysis, SD rats; assay type: in vitro ADME
Protocol: Protein binding rate of the assay compound in plasma of CD-1 mice, SD rats, beagle dogs, cynomolgus monkeys and human was determined by equilibrium dialysis.
Plasma samples with a compound concentration of 2 μM were prepared using plasma of the above five species, placed in a 96-well equilibrium dialysis device, and dialyzed with phosphate buffer solution at 37±1° C. for 4 hours. Warfarin was used as the control compound in this assay. The concentrations of the assay compound in plasma and dialysis buffer were determined by LC-MS/MS method.

[5] = tested on: human pancreatic cancer Mia PaCa-2 cells; assay: Pharmacodynamics in vivo, subcutaneously transplanted Mia PaCa-2 tumor model; set-up: species or system Balb/c Nude mice; conditions: day 22 of administration
Protocol: Assay on pharmacodynamics in vivo in a subcutaneously transplanted tumor model of human pancreatic cancer Mia PaCa-2 cells in Balb/c Nude mice
Cell culture: Human pancreatic cancer Mia PaCa-2 cells (ATCC-CRL-1420) were cultured in monolayer in vitro in DMEM medium with 10% fetal calf serum and 2.5% horse serum in a 37° C., 5% carbon dioxide incubator. Cells were passaged by routine digestion with trypsin-EDTA twice a week. When the cell saturation reached 80%-90% and the cell number met the requirement, the cells were harvested, counted, and resuspended in an appropriate amount of PBS. Matrigel was added in a ratio of 1:1 to obtain a cell suspension with a cell density of 25×10^6 cells/mL.
Cell inoculation: 0.2 mL (5×10^6 cells/mouse) of Mia PaCa-2 cells (plus Matrigel, 1:1 by volume) were subcutaneously inoculated into the right back of each mouse. When the average tumor volume reached 190 mm^3, mice were randomized into groups based on tumor volume and administration was initiated according to the protocol in Table 15.
Tumor diameter was measured with vernier caliper twice a week. The calculation formula of tumor volume was: V=0.5a×b^2, where a and b represent the long and short diameters of the tumor, respectively.
The anti-tumor efficacy of compound was evaluated by TGI (%) or relative tumor proliferation rate T/C (%). Relative tumor proliferation rate T/C (%)=TRTV/CRTV×100% (TRTV: RTV in a treatment group; CRTV: RTV in a negative control group). The relative tumor volume (RTV) was calculated according to results of tumor measurement, and the calculation formula was RTV=Vt/V0, where V0 was average tumor volume measured at the time of administration by group (i.e., D0), and Vt was average tumor volume at the time of a certain measurement. For TRTV and CRTV, data on the same day were used.
TGI (%) reflected tumor growth inhibition rate. TGI(%)=[(1−(average tumor volume at the end of administration of a treatment group−average tumor volume at the beginning of administration of the treatment group))/(average tumor volume at the end of treatment of a vehicle control group−average tumor volume at the beginning of treatment of the vehicle control group)]×100%.

C=C(F)C(=O)N1CCN(c2nc(OC[C@@]34CCCN3C[C@H](F)C4)nc3c2CO[C@H](c2c(F)c(N)cc(C)c2C(F)(F)F)C3)C[C@@H]1CC#N [Compound of formula (I)]
half-life at 1 μM [1]: 3.04 h | hepatocyte CLint at 1 μM ([1]; read-out: CLint(hep)): 7.6 µL/min/1e6 cells | CLint scaled at 1 μM ([1]; read-out: CLint(liver)): 52.3 mL/min/kg | half-life at 1 μM [2]: 1.66 h | hepatocyte CLint at 1 μM ([2]; read-out: CLint(hep)): 13.9 µL/min/1e6 cells | CLint scaled at 1 μM ([2]; read-out: CLint(liver)): 38.7 mL/min/kg | Detection of assay compound content within 120 min [3]: 94% | Protein unbound rate (%) ([4]; SD rats plasma, 2 μM, equilibrium dialysis 4 hours): 4.8% | fraction unbound at 4 h, 2 μM ([4]; plasma, value used in the SD rat PK table, read-out: Plasma protein unbound rate PPB (Unbound %)): 0.048 | Average tumor volume ([5]; 10 mg/kg PO QD): 249.87 mm^3 | T/C ([5]; 10 mg/kg PO QD): 12.39% | TGI ([5]; 10 mg/kg PO QD): 93.06% | Average tumor volume ([5]; 30 mg/kg PO QD): 124.14 mm^3 | T/C ([5]; 30 mg/kg PO QD): 6.16% | TGI ([5]; 30 mg/kg PO QD): 99.64%
